The results in this text go back to patent publication US20110233146A1, “S[…] CONTROL COMPOSITION, SYSTEMS, AND RELATED METHODS THEREFOR” (Siemens Water Technologies Corp., priority 2009, published 2011).

The test system of test [1] is atmospheric hydrogen sulfide. Nature of the test: Example 2: slug dose of anthraquinone alone, all other chemical feed off at LS482, atmospheric hydrogen sulfide by OdaLog monitor/loggers. Here is the method: In order to gather the required information, the two OdaLog® hydrogen sulfide monitor/loggers were deployed in the manhole just prior to lift station LS481 prior to 10:00 a.m. on day one. At 10:00 a.m. on day one all chemical feed was turned off at lift station LS482. At 10:00 a.m. on day two a ten gallon slug of anthraquinone (AQUIT) was added to the flow through the manhole at lift station LS482. At 10:00 a.m. on day three, regular chemical feed was resumed at lift station LS482. The OdaLog® monitor/loggers were retrieved on day six and downloaded to retrieve the atmospheric hydrogen sulfide concentrations before, during, and following the trial.
Data was collected over a period of several days to include a full day prior to the test and a full day after the test as summarized in the graph of FIG. 7.
The average atmospheric hydrogen sulfide concentration for the 24 hour period with no chemical additive was about 1,032 ppmv. During the following 24 hour period during which the effect of the slug dose of anthraquinone, the atmospheric hydrogen sulfide concentration averaged about 999 ppmv; the hydrogen sulfide concentration was thus reduced by about 3.2 percent.

Test [2] relates to atmospheric hydrogen sulfide. The test can be described thus: Sewerage system field trial (Example 1): atmospheric hydrogen sulfide logged at lift stations LS481 and LS480.
Text: The collection system consisted of four serial master lift stations LS 479, LS482, LS 481, and LS 480 feeding wastewater to a central treatment plant WWTP as depicted in FIG. 2.
Calcium hydroxide (with or without anthraquinone) feed rate was dependent mainly on the wastewater flow rate.
Data collected included atmospheric hydrogen sulfide collected every five minutes with monitor/loggers within the monitoring manhole at lift station LS481 and inside the lift station LS480, and dissolved sulfide grab samples at each as well as treatment plant WWTP. Nitrate residual and pH data were also collected. […] The chemical feed line was disposed to feed into the manhole about 50 feet upstream of lift station LS482.
Over the next few weeks the controller pH set point was adjusted until the desired atmospheric pH was attained downstream at lift station LS481.
Two batches of a formulation of calcium hydroxide supplemented with anthraquinone were fed to determine the effectiveness of the combination for controlling odor.
The primary monitoring point for atmospheric hydrogen sulfide was at lift station LS481. The primary monitoring point for dissolved sulfide was the plant influent. During the period from June 23 to July 14 background data was gathered (FIG. 4) to reflect the system operating on nitrate salt feed at all four lift stations.
The data was tabulated for every day on which no calcium hydroxide was fed and that nitrate salt was fed at all four lift stations.
The mark [3] stands for this setting: 10/14 to 10/17, after 10 gal anthraquinone slug on 10/13 at LS482, with calcium hydroxide slurry 258 GPD, nitrate salt solution 197 GPD.

With `O=C1c2ccccc2C(=O)c2ccccc21` [Anthraquinone, anthraquinone], the “average atmospheric hydrogen sulfide concentration” value in test [1] (24 hour period under the effect of a ten gallon slug of anthraquinone alone, preceding 24 hours with no chemical additive about 1,032 ppmv) is recorded as “about 999 ppmv”. Moreover, the “hydrogen sulfide concentration reduced by” value in test [1] (ten gallon slug of anthraquinone alone versus preceding 24 hours with no chemical additive) is on record as “about 3.2%”. In test [2] (setting [3]), the “LS480 Avg Atm H2S” value amounted to 305 ppmv and the “LS481 Avg Atm H2S” value is recorded as 100 ppmv. The “decrease in atmospheric hydrogen sulfide concentration at the downstream monitoring point” value in test [2] (anthraquinone added to the alkaline material used for pH adjustment, versus alkaline material without it) was found to be 21%. In addition, the “atmospheric hydrogen sulfide downstream dropped” value in test [2] (anthraquinone added with calcium hydroxide to the sewer upstream of the sampling point (see Table 8)) was found to be 37.5%. Also, the “reduction in the hydrogen sulfide concentration at the downstream monitoring point lift station LS481” value in test [2] (one time slug of anthraquinone along with the calcium hydroxide feed, over the next four days) is listed as “about 38%”.
